Where two headings read alike, the source gives them in different places.
System: HBV
Assay: HBV-DNA antiviral assay using HepG2.117 cells (intracellular HBV DNA by qPCR)
Format: cell-based, HBV genotype D
Details: HBV DNA inhibition, 3 days incubation, read-out: EC50
Outline: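 HepG2.117 cells (stably integrated genotype D HBV, Tet-off) seeded without doxycycline to induce pgRNA, then treated next day with 9 concentrations (4-fold dilutions, 2% DMSO) for 3 days at 37 °C. Intracellular HBV DNA quantified by qPCR against standard curve, viability by ATP content; inhibition relative to DMSO control, EC50/EC90/CC50 by non-linear regression.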

[1] = Hepatitis B virus, HepG2.117, 72 h

Structure (SMILES)	EC50 [1]	EC50
CC1Cn2c(c(C(=O)NCc3ccccc3-n3ccc(C(F)(F)F)n3)n(-c3ccc(N4CC5(CN(C)C5)C4)cc3)c2=O)CN1C(=O)c1ccc(Br)c(C(F)(F)F)c1 (single isomer, unassigned) [Compound 110a]	50 to 500 nM	–
CC1Cn2c(c(C(=O)NCc3ccccc3-n3ccc(C(F)(F)F)n3)n(-c3ccc(N4CC5(CN(C)C5)C4)cc3)c2=O)CN1C(=O)c1ccc(Br)c(C(F)(F)F)c1 (single isomer, unassigned) [Compound 110b]	–	50 to 500 nM
CC1Cn2c(c(C(=O)NCc3ccccc3-c3nnco3)n(-c3ccc(N4CC5(CN(C)C5)C4)cc3)c2=O)CN1C(=O)c1ccc(Br)c(C(F)(F)F)c1 (single isomer, unassigned) [Compound 112a]	500 to 5000 nM	–
CC1Cn2c(c(C(=O)NCc3ccccc3-c3nnco3)n(-c3ccc(N4CC5(CN(C)C5)C4)cc3)c2=O)CN1C(=O)c1ccc(Br)c(C(F)(F)F)c1 (single isomer, unassigned) [Compound 112b]	–	500 to 5000 nM
CC1(O)CCN(c2ccc(-n3c(C(=O)NCc4ccccc4)c4n(c3=O)CCN(C(=O)c3ccc(Br)c(Cl)c3)C4)cc2)C1 (single isomer, unassigned) [Compound 115a]	50 to 500 nM	–
CC1(O)CCN(c2ccc(-n3c(C(=O)NCc4ccccc4)c4n(c3=O)CCN(C(=O)c3ccc(Br)c(Cl)c3)C4)cc2)C1 (single isomer, unassigned) [Compound 115b]	–	50 to 500 nM
O=C(NCc1ccccc1)c1c2n(c(=O)n1-c1ccc(N3CC4CC[C@H]3CO4)cc1)CCN(C(=O)c1ccc(Br)c(Cl)c1)C2 (single isomer, unassigned) [Compound 125a]	50 to 500 nM	–
O=C(NCc1ccccc1)c1c2n(c(=O)n1-c1ccc(N3CC4CC[C@@H]3CO4)cc1)CCN(C(=O)c1ccc(Br)c(Cl)c1)C2 (single isomer, unassigned) [Compound 125b]	50 to 500 nM	–
O=C(NCc1ccccc1-c1ncccn1)c1c2n(c(=O)n1-c1ccc(OC3CC3)cc1)CC(CN1CCOCC1)N(C(=O)c1ccc(Br)c(C(F)(F)F)c1)C2 (single isomer, unassigned) [Compound 132a]	500 to 5000 nM	–
O=C(NCc1ccccc1-c1ncccn1)c1c2n(c(=O)n1-c1ccc(OC3CC3)cc1)CC(CN1CCOCC1)N(C(=O)c1ccc(Br)c(C(F)(F)F)c1)C2 (single isomer, unassigned) [Compound 132b]	–	500 to 5000 nM
CC1Cn2c(c(C(=O)NCc3ccccc3-n3cc(F)cn3)n(-c3ccc(N4CCO[C@H](C)C4)cc3)c2=O)CN1C(=O)c1ccc(Br)c(Cl)c1 (stereo in doubt) [Compound 14a, (6R*)-7-(4-bromo-3-chloro-benzoyl)-N-[[2-(4-fluoropyrazol-1-yl)phenyl]methyl]-6-methyl-2-[4-[(2R)-2-methylmorpholin-4-yl]phenyl]-3-oxo-6,8-dihydro-5H-imidazo[1,5-a]pyrazine-1-carboxamide]	50 to 500 nM	–
CC1Cn2c(c(C(=O)NCc3ccccc3-n3cc(F)cn3)n(-c3ccc(N4CCO[C@H](C)C4)cc3)c2=O)CN1C(=O)c1ccc(Br)c(Cl)c1 (stereo in doubt) [Compound 14b, (6S*)-7-(4-bromo-3-chloro-benzoyl)-N-[[2-(4-fluoropyrazol-1-yl)phenyl]methyl]-6-methyl-2-[4-[(2R)-2-methylmorpholin-4-yl]phenyl]-3-oxo-6,8-dihydro-5H-imidazo[1,5-a]pyrazine-1-carboxamide]	–	< 50 nM
CC1Cn2c(c(C(=O)NCc3ccccc3-c3ccncn3)n(-c3ccc(N4CCO[C@H](C)C4)cc3)c2=O)CN1C(=O)c1ccc(Br)c(Cl)c1 (stereo in doubt) [Compound 15a, (6R*)-7-(4-bromo-3-chloro-benzoyl)-6-methyl-2-[4-[(2R)-2-methylmorpholin-4-yl]phenyl]-3-oxo-N-[(2-pyrimidin-4-ylphenyl)methyl]-6,8-dihydro-5H-imidazo[1,5-a]pyrazine-1-carboxamide]	50 to 500 nM	–
CC1Cn2c(c(C(=O)NCc3ccccc3-c3ccncn3)n(-c3ccc(N4CCO[C@H](C)C4)cc3)c2=O)CN1C(=O)c1ccc(Br)c(Cl)c1 (stereo in doubt) [Compound 15b, (6S*)-7-(4-bromo-3-chloro-benzoyl)-6-methyl-2-[4-[(2R)-2-methylmorpholin-4-yl]phenyl]-3-oxo-N-[(2-pyrimidin-4-ylphenyl)methyl]-6,8-dihydro-5H-imidazo[1,5-a]pyrazine-1-carboxamide]	–	< 50 nM
CNc1cc(-c2ccccc2CNC(=O)c2c3n(c(=O)n2-c2ccc(OC4CC4)cc2)C[C@@H](C)N(C(=O)c2ccc(Br)c(Cl)c2)C3)ncn1 (stereo in doubt) [Compound 39a, rac-(6R)-7-(4-bromo-3-chloro-benzoyl)-2-[4-(cyclopropoxy)phenyl]-(methylamino)pyrimidin-4-6-methyl-N-[[246-yl]phenyl]methyl]-3-oxo-6,8-dihydro-5H-imidazo[1,5-a]pyrazine-1-carboxamide]	50 to 500 nM	–
CNc1cc(-c2ccccc2CNC(=O)c2c3n(c(=O)n2-c2ccc(OC4CC4)cc2)C[C@H](C)N(C(=O)c2ccc(Br)c(Cl)c2)C3)ncn1 (stereo in doubt) [Compound 39b, rac-(6S)-7-(4-bromo-3-chloro-benzoyl)-2-[4-(cyclopropoxy)phenyl]-6-methyl-N-[[246-(methylamino)pyrimidin-4-yl]phenyl]methyl]-3-oxo-6,8-dihydro-5H-imidazo[1,5-a]pyrazine-1-carboxamide]	< 50 nM	–
CC1Cn2c(c(C(=O)NCc3ccccc3-c3ccncn3)n(-c3ccc(OC[C@@H](C)O)cc3)c2=O)CN1C(=O)c1ccc(Br)c(C(F)(F)F)c1 (stereo in doubt) [Compound 55a, (6R*)-7-[4-bromo-3-(trifluoromethyl)benzoyl]-2-{4-[(2R)-2-hydroxypropoxy]phenyl}-6-methyl-3-oxo-N-{[2-(pyrimidin-4-yl)phenyl]methyl}-5H,6H,8H-imidazo[1,5-a]pyrazine-1-carboxamide]	50 to 500 nM	–
CC1Cn2c(c(C(=O)NCc3ccccc3-c3ccncn3)n(-c3ccc(OC[C@@H](C)O)cc3)c2=O)CN1C(=O)c1ccc(Br)c(C(F)(F)F)c1 (stereo in doubt) [Compound 55b, (6S*)-7-[4-bromo-3-(trifluoromethyl)benzoyl]-2-{4-[(2R)-2-hydroxypropoxy]phenyl}-6-methyl-3-oxo-N-{[2-(pyrimidin-4-yl)phenyl]methyl}-5H,6H,8H-imidazo[1,5-a]pyrazine-1-carboxamide]	–	< 50 nM
C[C@H]1Cn2c(c(C(=O)NCc3ccccc3-c3ccncn3)n(-c3ccc(OC[C@@H](O)C(F)(F)F)cc3)c2=O)CN1C(=O)c1ccc(Br)c(C(F)(F)F)c1 (stereo in doubt) [Compound 62b]	50 to 500 nM	–
C[C@@H]1Cn2c(c(C(=O)NCc3ccccc3-c3ccncn3)n(-c3ccc(OC[C@H](O)C(F)(F)F)cc3)c2=O)CN1C(=O)c1ccc(Br)c(C(F)(F)F)c1 (stereo in doubt) [Compound 63a, (6RS)-7-[4-bromo-3-(trifluoromethyl)benzoyl]-6-methyl-3-oxo-N-[(2-pyrimidin-4-ylphenyl)methyl]-2-[4-[(25)-3,3,3-trifluoro-2-hydroxy-propoxy]phenyl]-6,8-dihydro-5H-imidazo[1,5-a]pyrazine-1-carboxamide]	< 50 nM	–

Source: patent US11845752B2, “Substituted imidazo[1,5-a]pyrazines for the treatment of hepatitis B” (ALIGOS THERAPEUTICS, INC., priority 2020, dated 2023)
